According to paper PMC8810914 (Biochemistry, 2021):

Tests used:
M2 WT = conditions: only binding curve recorded; upper limit of the true Kd; cited from earlier work
Udorn M2 WT = Udorn M2 WT (Influenza A virus, UniProt P0DOF5); assay: two-electrode voltage clamp electrophysiological; type: binding, influenza A virus A/Udorn/72; conditions: amantadine vs rimantadine
Sequence of Udorn M2 WT (P0DOF5 whole entry, looked up): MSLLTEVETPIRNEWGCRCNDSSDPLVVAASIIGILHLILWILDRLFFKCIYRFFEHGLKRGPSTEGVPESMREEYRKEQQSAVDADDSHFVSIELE

| Structure (SMILES) | Kd (M2 WT) | binding affinity to Udorn M2 WT weaker than rimantadine (Udorn M2 WT) |
| --- | --- | --- |
| CC(N)C12CC3CC(CC(C3)C1)C2 (racemic) [rimantadine (racemic), rimantadine] | 7 µM | – |
| C[C@H](N)C12CC3CC(CC(C3)C1)C2 [(S)-rimantadine] | 3.9 µM | – |
| NC12CC3CC(CC(C3)C1)C2 [amantadine] | – | about 10 fold |
